This note sets out measurements from patent US4914187A, “Ester derivatives of antibiotic L 17046” (Gruppo Lepetit S.p.A, priority 1989, dated 1990).

The subject of data set [1] is S. epidermidis ATCC 12228. Kind of data set: agar-dilution MIC test. Type of data set: cell-based. Here is the method: (§1) Isosensitest broth (Oxoid) and Todd-Hewitt broth (Difco) are used for growing staphylococci and streptococci, respectively. Broth cultures are diluted so that the final inoculum is about 10^4 colony forming units/ml (CFU/ml).
The subject of the next data set is S. faecalis ATCC 7080. Kind of data set: agar-dilution MIC test. It is filed as cell-based. Here is the method: as §1
A further data set relates to S. pneumoniae UC 41. Nature of the data set: agar-dilution MIC test. It is filed as cell-based. The procedure: as §1
In data set [2] the test system is S. pyogenes C 203 SKF 13400. Kind of data set: agar-dilution MIC test. Type of data set: cell-based. Here is the method: as §1
In another data set the test system is S. aureus TOUR. Kind of data set: agar-dilution MIC test. Type of data set: cell-based. An excerpt: Isosensitest broth (Oxoid) and Todd-Hewitt broth (Difco) are used for growing staphylococci and streptococci, respectively. […]
In the next data set the test system is E. coli SKF 12140. Kind of data set: agar-dilution MIC test. Type of data set: cell-based.
Another data set concerns S. aureus ATCC 6538. Kind of data set: agar-dilution MIC test. Type of data set: cell-based. To be noted: 18-24 h at 37° C. The procedure: as §1
Another data set is described as follows: pKa by titration. It is filed as physicochemical. To be noted: methylcellulose ®/water 4:1 (v/v), excess 0.01 M hydrogen chloride, titrated with 0.01 M NaOH. The procedure:
^(c) the samples are dissolved in methylcellulose ®/water 4:1
(v/v), an excess of 0.01 M hydrogen chloride in the same mixture is added
thereto and the resulting solution is titrated with 0.01 M NaOH in the […]

[3] abbreviates: S. aureus TOUR + 30% bovine serum.

In brackets after ≈: the same amount, converted by molar mass.

With `CC(=O)N[C@H]1[C@H](OC2c3ccc(c(Cl)c3)Oc3cc4cc(c3O)Oc3ccc(cc3Cl)CC3NC(=O)C(N)c5ccc(O)c(c5)Oc5cc(O)cc(c5)C(NC3=O)C(=O)NC4C(=O)NC3C(=O)NC2C(=O)NC(C(=O)OCc2ccc(C)cc2)c2cc(O)cc(O)c2-c2cc3ccc2O)O[C@H](CO)[C@@H](O)[C@@H]1O` (some centres unmarked) [Example 10, antibiotic L 17046 (4-methyl)-benzyl ester], the MIC in data set [1] was found to be 0.063 µg/mL (≈ 0.0418 µM); in the data set with S. faecalis ATCC 7080, 0.25 µg/mL (≈ 0.166 µM); in the data set on S. pneumoniae UC 41 it was 0.5 µg/mL (≈ 0.332 µM); in data set [2], 0.125 µg/mL (≈ 0.083 µM); in the data set with S. aureus TOUR (S. aureus TOUR (10^3 CFU/ml)), 0.125 µg/mL (≈ 0.083 µM); against S. aureus TOUR (S. aureus TOUR (10^6 CFU/ml)), 0.25 µg/mL (≈ 0.166 µM). Also, the MIC in the data set on S. aureus TOUR (setting [3]) came out at 4 µg/mL; in the data set with E. coli SKF 12140 it was 64 µg/mL (≈ 42.5 µM).
For the compound `CC(=O)N[C@H]1[C@H](OC2c3ccc(c(Cl)c3)Oc3cc4cc(c3O)Oc3ccc(cc3Cl)CC3NC(=O)C(N)c5ccc(O)c(c5)Oc5cc(O)cc(c5)C(NC3=O)C(=O)NC4C(=O)NC3C(=O)NC2C(=O)NC(C(=O)OCCO)c2cc(O)cc(O)c2-c2cc3ccc2O)O[C@H](CO)[C@@H](O)[C@@H]1O.O=C(O)C(F)(F)F` (some centres unmarked) [Example 12, antibiotic L 17046 (2-hydroxy)ethyl ester trifluroacetate], the MIC in data set [1] is 0.063 µg/mL; in the data set with S. faecalis ATCC 7080, 0.25 µg/mL; in the data set with S. pneumoniae UC 41, 1 µg/mL; in data set [2] it was 0.25 µg/mL; in the data set on S. aureus TOUR (S. aureus TOUR (10^3 CFU/ml)), 0.125 µg/mL; against S. aureus TOUR (S. aureus TOUR (10^6 CFU/ml)), 0.125 µg/mL. Besides, the MIC in the data set with S. aureus TOUR (setting [3]) came to 0.5 µg/mL; against E. coli SKF 12140, 128 µg/mL.
With `CC(=O)N[C@H]1[C@H](OC2c3ccc(c(Cl)c3)Oc3cc4cc(c3O)Oc3ccc(cc3Cl)CC3NC(=O)C(N)c5ccc(O)c(c5)Oc5cc(O)cc(c5)C(NC3=O)C(=O)NC4C(=O)NC3C(=O)NC2C(=O)NC(C(=O)OCCCCCl)c2cc(O)cc(O)c2-c2cc3ccc2O)O[C@H](CO)[C@@H](O)[C@@H]1O.Cl` (some centres unmarked) [Example 5, antibiotic L 17046 4-chlorobutyl ester, hydrochloride], the MIC is 0.25 µg/mL against S. aureus ATCC 6538; 0.064 µg/mL in data set [1]; 0.25 µg/mL with S. faecalis ATCC 7080; 0.125 µg/mL in the data set with S. pneumoniae UC 41; 0.25 µg/mL in data set [2]; 0.125 µg/mL against S. aureus TOUR (S. aureus TOUR (10^3 CFU/ml)). In addition, the MIC against S. aureus TOUR (S. aureus TOUR (10^6 CFU/ml)) came out at 0.125 µg/mL; in the data set on S. aureus TOUR (setting [3]), 0.5 µg/mL; in the data set with E. coli SKF 12140, 128 µg/mL. In the data set “pKa by titration”, this compound displayed a pKa of 6.66.
In the case of `COC(=O)C1NC(=O)C2NC(=O)C(NC(=O)C3NC(=O)C4NC(=O)C(Cc5ccc(c(Cl)c5)Oc5cc3cc(c5O)Oc3ccc(cc3Cl)C2O[C@@H]2O[C@H](CO)[C@@H](O)[C@H](O)[C@H]2NC(C)=O)NC(=O)C(N)c2ccc(O)c(c2)Oc2cc(O)cc4c2)c2ccc(O)c(c2)-c2c(O)cc(O)cc21.Cl` (some centres unmarked) [Example 1, antibiotic L 17046 methyl ester, hydrochloride], the MIC against S. aureus ATCC 6538 turned out to be 0.125 µg/mL; in data set [1], 0.016 µg/mL; against S. faecalis ATCC 7080 it was 0.5 µg/mL; in the data set with S. pneumoniae UC 41 it was 0.5 µg/mL; in data set [2] it was 0.5 µg/mL; with S. aureus TOUR (S. aureus TOUR (10^3 CFU/ml)) it was 0.125 µg/mL. Further, the MIC against S. aureus TOUR (S. aureus TOUR (10^6 CFU/ml)) was 0.5 µg/mL; in the data set with S. aureus TOUR (setting [3]), 0.25 µg/mL; in the data set with E. coli SKF 12140 it was 128 µg/mL. The same compound came in with a pKa in “pKa by titration” of 6.70.
As to `CC(=O)N[C@H]1[C@H](OC2c3ccc(c(Cl)c3)Oc3cc4cc(c3O)Oc3ccc(cc3Cl)CC3NC(=O)C(N)c5ccc(O)c(c5)Oc5cc(O)cc(c5)C(NC3=O)C(=O)NC4C(=O)NC3C(=O)NC2C(=O)NC(C(=O)OCc2ccccc2)c2cc(O)cc(O)c2-c2cc3ccc2O)O[C@H](CO)[C@@H](O)[C@@H]1O.O=C(O)C(F)(F)F` (some centres unmarked) [Example 8, antibiotic L 17046 benzyl ester trifluoroacetate], the MIC was determined as 0.063 µg/mL in data set [1]; 0.125 µg/mL in the data set with S. faecalis ATCC 7080; 0.25 µg/mL in the data set with S. pneumoniae UC 41; 0.125 µg/mL in data set [2]; 0.125 µg/mL with S. aureus TOUR (S. aureus TOUR (10^3 CFU/ml)); 0.125 µg/mL against S. aureus TOUR (S. aureus TOUR (10^6 CFU/ml)). Also, the MIC with S. aureus TOUR (setting [3]) was found to be 4 µg/mL; in the data set on E. coli SKF 12140, 64 µg/mL.
For `CCOC(=O)C1NC(=O)C2NC(=O)C(NC(=O)C3NC(=O)C4NC(=O)C(Cc5ccc(c(Cl)c5)Oc5cc3cc(c5O)Oc3ccc(cc3Cl)C2O[C@@H]2O[C@H](CO)[C@@H](O)[C@H](O)[C@H]2NC(C)=O)NC(=O)C(N)c2ccc(O)c(c2)Oc2cc(O)cc4c2)c2ccc(O)c(c2)-c2c(O)cc(O)cc21.Cl` (some centres unmarked) [Example 2, antibiotic L 17046 ethyl ester, hydrochloride], the MIC against S. aureus ATCC 6538 was determined as 0.25 µg/mL; in data set [1], 0.016 µg/mL; against S. faecalis ATCC 7080, 0.5 µg/mL; in the data set on S. pneumoniae UC 41, 0.5 µg/mL; in data set [2] it was 0.5 µg/mL; in the data set with S. aureus TOUR (S. aureus TOUR (10^3 CFU/ml)), 0.25 µg/mL. In addition, the MIC in the data set with S. aureus TOUR (S. aureus TOUR (10^6 CFU/ml)) came to 0.5 µg/mL; in the data set with S. aureus TOUR (setting [3]) it was 0.5 µg/mL; with E. coli SKF 12140, 128 µg/mL. The pKa in the data set “pKa by titration” stood at 6.68.
For `CCCCOC(=O)C1NC(=O)C2NC(=O)C(NC(=O)C3NC(=O)C4NC(=O)C(Cc5ccc(c(Cl)c5)Oc5cc3cc(c5O)Oc3ccc(cc3Cl)C2O[C@@H]2O[C@H](CO)[C@@H](O)[C@H](O)[C@H]2NC(C)=O)NC(=O)C(N)c2ccc(O)c(c2)Oc2cc(O)cc4c2)c2ccc(O)c(c2)-c2c(O)cc(O)cc21.Cl` (some centres unmarked) [Example 3, antibiotic L 17046 n-butyl ester, hydrochloride], the MIC in the data set on S. aureus ATCC 6538 came out at 0.25 µg/mL; in data set [1], 0.016 µg/mL; in the data set with S. faecalis ATCC 7080, 0.5 µg/mL; with S. pneumoniae UC 41 it was 0.5 µg/mL; in data set [2], 0.25 µg/mL; with S. aureus TOUR (S. aureus TOUR (10^3 CFU/ml)) it was 0.125 µg/mL. The values for the MIC against S. aureus TOUR (S. aureus TOUR (10^6 CFU/ml)), in the data set with S. aureus TOUR (setting [3]) and against E. coli SKF 12140 were 0.25 µg/mL, 0.5 µg/mL and 128 µg/mL, respectively. The compound also showed a pKa in “pKa by titration” of 6.65.
As for `CC(=O)N[C@H]1[C@H](OC2c3ccc(c(Cl)c3)Oc3cc4cc(c3O)Oc3ccc(cc3Cl)CC3NC(=O)C(N)c5ccc(O)c(c5)Oc5cc(O)cc(c5)C(NC3=O)C(=O)NC4C(=O)NC3C(=O)NC2C(=O)NC(C(=O)OCCCl)c2cc(O)cc(O)c2-c2cc3ccc2O)O[C@H](CO)[C@@H](O)[C@@H]1O.Cl` (some centres unmarked) [Example 4, antibiotic L 17046 2-chloroethyl ester, hydrochloride], the MIC in the data set with S. aureus ATCC 6538 was determined as 0.25 µg/mL; in data set [1] it was 0.064 µg/mL; with S. faecalis ATCC 7080, 0.5 µg/mL; in the data set with S. pneumoniae UC 41, 0.5 µg/mL; in data set [2], 0.25 µg/mL; in the data set on S. aureus TOUR (S. aureus TOUR (10^3 CFU/ml)), 0.25 µg/mL. Also, the values for the MIC with S. aureus TOUR (S. aureus TOUR (10^6 CFU/ml)), in the data set on S. aureus TOUR (setting [3]) and with E. coli SKF 12140 were 0.5 µg/mL, 0.5 µg/mL and 128 µg/mL, respectively. The compound also yielded a pKa in “pKa by titration” of 6.67.

In general, MIC refers to the lowest concentration that inhibits growth of the organism. By pKa is commonly meant the negative logarithm of the acid dissociation constant.
